In brackets after ≈: the same amount, converted by molar mass. Several values for one entry are separate records, joined by “and”; a condition that tells them apart may be missing. Identical values can stand only once.
What was measured:
[1] = In vitro MZ release, USP Dissolution Apparatus 2; type: physicochemical; conditions: for Cumulative MZ Released: individual determinations
Experimental: All four formulations were filled manually with a syringe into a hydrophilic airfill soft gelatin capsule (R. P. Scherer, Basking Ridge, N.J.) and the resulting hole was sealed thermally. […] C. Cremphor RH 40 was used to maintain the sink condition of the releasing medium. The release medium was constantly stirred at 50 rpm by a Teflon-coated dissolution paddle. Serial release samples were withdrawn and filtered through a 0.45 μm Millipore filter and analyzed by the HPLC assay.

SRB1 = assay: Cell growth inhibition in skin cancer cells; type: cell-based
A375 = assay: Cell growth inhibition in skin cancer cells; type: cell-based; conditions: Homo sapiens, A-375
2237 = assay: Cell growth inhibition in skin cancer cells; type: cell-based
H1299 cells = assay: Cell growth inhibition in NSCLC cells; type: cell-based; conditions: Homo sapiens, NCI-H1299, NSCLC cells; MZ from two microemulsion formulations
[2] = 33 days

Cumulative MZ Released, Mean ([1]; 10 min): 0.04 % Dose | Cumulative MZ Released, Mean ([1]; 20 min): 0.15 % Dose | Cumulative MZ Released, Mean ([1]; 30 min): 0.22 % Dose | Cumulative MZ Released, Mean ([1]; 40 min): 0.29 % Dose | Cumulative MZ Released, Mean ([1]; 50 min): 0.29 % Dose | Cumulative MZ Released ([1]; 60 min, listed as MZ powder): 0.27 % Dose (2×) and 0.32 % Dose | Cumulative MZ Released, Mean ([1]; 60 min, listed as MZ powder): 0.29 % Dose | Cumulative MZ Released, Mean ([1]; 60 min, listed as unformulated drug powder): 0.3 % Dose | IC50 (SRB1): 0.091 µg/mL (≈ 0.308 µM) | IC50 (A375): 0.129 µg/mL (≈ 0.437 µM) | IC50 2237: 0.171 µg/mL (≈ 0.579 µM) | IC50 (H1299 cells): 0.008 µg/mL (≈ 0.0271 µM) | pH-stability [2]: sufficiently stable | logP (physchem): 2.51
SMILES: COC(=O)Nc1nc2ccc(C(=O)c3ccccc3)cc2[nH]1 [MZ, methyl 5-benzoylbenzimidazole-2-carbamate]
Cumulative MZ Released ([1]; 10 min, listed as MZ powder): 0.01 % Dose and 0.012 % Dose and 0.083 % Dose | Cumulative MZ Released ([1]; 20 min, listed as MZ powder): 0.035 % Dose and 0.22 % Dose and 0.18 % Dose | Cumulative MZ Released ([1]; 30 min, listed as MZ powder): 0.14 % Dose and 0.25 % Dose and 0.28 % Dose | Cumulative MZ Released ([1]; 40 min, listed as MZ powder): 0.22 % Dose and 0.23 % Dose and 0.41 % Dose | Cumulative MZ Released ([1]; 50 min, listed as MZ powder): 0.2 % Dose and 0.31 % Dose and 0.35 % Dose

— patent publication US9259390B2, “Parenteral and oral formulations of benzimidazoles” (priority 2003, dated 2016)
